Measurements as given in patent publication US12350259B2, “Methods of treating migraine” (Allergan Pharmaceuticals International Limited, priority 2021, dated 2025).
Read-outs that look alike come from different tables or passages of the source. Marks after values point to notes of the source that are not given here.

Assays:
[1] = Atogepant-itraconazole interaction study: safety and tolerability; format: in vivo, human
From the text: The primary objective of this study was to assess the effects of multiple dose itraconazole on the pharmacokinetics of a single dose of atogepant. The primary endpoints were PK parameters of atogepant derived from plasma concentrations. The secondary objectives of the study were to assess the safety and tolerability of atogepant and itraconazole given alone and in combination, and to establish the correlation between concentrations of atogepant in dried blood sample (DBS) (obtained via finger stick) and plasma. The secondary endpoints included AEs, clinical laboratory parameters, vital signs, ECG, and physical examination, and correlation of concentrations of atogepant in DBS and plasma. Subjects who satisfied the inclusion and exclusion criteria were assigned to a single fixed-treatment sequence in which they received Treatment A followed by Treatment B; there was a 7-day washout period between treatments. • Treatment A: Single oral 60 mg dose of atogepant (tablet) under fasted conditions on Day 1 • Treatment B • Days 8-14: Itraconazole 200 mg (tablet) orally once daily under fed conditions. • Day 15: Itraconazole 200 mg coadministered with atogepant 60 mg (tablet) under fasted conditions. • Days 16 to 17: Itraconazole 200 mg (tablet) once daily under fed conditions.

[2] = Hepatic impairment study: atogepant plasma protein binding; format: in vitro ADME, human; conditions: human, plasma, oral, 60 mg, 2 hr post dose, read-out: plasma protein binding, percent bound (converted)
Description: (§1) Protein binding blood samples were collected from all participants starting on Day 1 at 0 hour (predose) and at 2 hours post dose. The pre-dose samples collected prior to dosing for each participant were externally spiked with known quantities of atogepant. Percent bound atogepant was determined in the 2-hour sample using direct measurement of the atogepant concentrations in the blood sample.

[3] = tested on: plasma protein; test: as above; format: in vitro ADME, human; conditions: for fraction unbound: human, 0 hr (predose, spiked sample), read-out: plasma protein binding, percent bound (converted); for plasma protein binding, percent bound: 2 hr post dose
Description: as §1

[4] = Safety in 12-week placebo-controlled Studies 1 and 2; format: in vivo, human
Description: The safety of atogepant was evaluated in 1958 patients with migraine who received at least one dose of atogepant. Of these, 839 patients were exposed to atogepant once daily for at least 6 months, and 487 patients were exposed for 12 months. In the 12-week, placebo-controlled clinical studies (Study 1 and Study 2, discussed above in Example 7), 314 patients received at least one dose of atogepant 10 mg once daily, 411 patients received at least one dose of atogepant 30 mg once daily, 417 patients received at least one dose of atogepant 60 mg once daily, and 408 patients received placebo. Approximately 88% were female, 80% were White, 17% were Black, and 12% were of Hispanic or Latino ethnicity. The mean age at study entry was 41 years (range 18 to 74 years).

[5] = Atogepant-topiramate interaction study: safety and tolerability; format: in vivo, human
[6] = target: CYP2C8 (Homo sapiens, UniProt P10632); test: In vitro CYP inhibition; format: in vitro ADME; conditions: clinically relevant concentrations
[7] = target: UGT1A1 (Homo sapiens, UniProt P22309); test: Enzyme inhibition; format: in vitro ADME; conditions: clinically relevant concentrations
[8] = tested on: CYP1A2; test: CYP induction; format: in vitro ADME; conditions: clinically relevant concentrations
[9] = tested on: CYP3A4; test: CYP induction; format: in vitro ADME; conditions: clinically relevant concentrations
[10] = target: OATP1B3 (Homo sapiens, UniProt Q9NPD5); test: Transporter substrate; format: in vitro ADME
[11] = target: OAT1 (Homo sapiens, UniProt Q4U2R8); test: Transporter inhibition; format: in vitro ADME; conditions: clinically relevant concentrations
[12] = target: BSEP (Homo sapiens, UniProt O95342); test: Transporter inhibition; format: in vitro ADME; conditions: clinically relevant concentrations
[13] = target: CYP3A4 (Homo sapiens, UniProt P08684); test: Elimination by metabolism; format: in vitro ADME
[14] = Studies 1 and 2, atogepant 10 mg (N = 314)
[15] = Studies 1 and 2, atogepant 30 mg (N = 411)
[16] = Studies 1 and 2, atogepant 60 mg (N = 417)

OAT1, sequence (Q4U2R8 whole entry): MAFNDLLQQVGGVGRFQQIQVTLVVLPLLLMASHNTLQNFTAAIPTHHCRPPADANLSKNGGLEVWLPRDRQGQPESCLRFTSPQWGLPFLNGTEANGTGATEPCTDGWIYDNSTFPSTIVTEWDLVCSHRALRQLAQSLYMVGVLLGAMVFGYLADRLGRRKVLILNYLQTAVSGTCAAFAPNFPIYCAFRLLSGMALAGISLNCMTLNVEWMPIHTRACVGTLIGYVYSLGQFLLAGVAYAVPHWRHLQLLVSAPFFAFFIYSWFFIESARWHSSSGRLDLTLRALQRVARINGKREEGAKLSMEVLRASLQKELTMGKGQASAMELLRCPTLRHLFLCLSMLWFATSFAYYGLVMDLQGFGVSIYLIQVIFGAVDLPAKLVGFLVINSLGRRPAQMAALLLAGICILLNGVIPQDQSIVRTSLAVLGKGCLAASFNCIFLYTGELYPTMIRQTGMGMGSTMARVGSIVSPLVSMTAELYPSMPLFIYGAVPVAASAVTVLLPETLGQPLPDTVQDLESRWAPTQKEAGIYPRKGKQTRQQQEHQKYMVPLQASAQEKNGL
CYP3A4 (Homo sapiens, UniProt P08684), sequence (P08684 whole entry): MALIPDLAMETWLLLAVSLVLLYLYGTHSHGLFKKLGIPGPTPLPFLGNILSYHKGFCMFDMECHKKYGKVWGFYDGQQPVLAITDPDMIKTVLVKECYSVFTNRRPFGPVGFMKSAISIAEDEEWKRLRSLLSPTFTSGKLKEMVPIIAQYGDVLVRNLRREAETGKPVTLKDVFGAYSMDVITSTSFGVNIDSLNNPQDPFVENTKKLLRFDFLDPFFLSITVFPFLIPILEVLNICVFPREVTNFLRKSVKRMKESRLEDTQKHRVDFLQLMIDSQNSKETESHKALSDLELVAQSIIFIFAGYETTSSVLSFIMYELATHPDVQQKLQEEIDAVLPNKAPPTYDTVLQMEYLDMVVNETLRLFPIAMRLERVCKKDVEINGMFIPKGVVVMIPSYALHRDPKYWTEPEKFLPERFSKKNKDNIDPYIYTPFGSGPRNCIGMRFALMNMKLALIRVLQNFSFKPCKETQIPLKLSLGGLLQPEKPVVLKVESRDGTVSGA
OATP1B3, sequence (Q9NPD5 whole entry): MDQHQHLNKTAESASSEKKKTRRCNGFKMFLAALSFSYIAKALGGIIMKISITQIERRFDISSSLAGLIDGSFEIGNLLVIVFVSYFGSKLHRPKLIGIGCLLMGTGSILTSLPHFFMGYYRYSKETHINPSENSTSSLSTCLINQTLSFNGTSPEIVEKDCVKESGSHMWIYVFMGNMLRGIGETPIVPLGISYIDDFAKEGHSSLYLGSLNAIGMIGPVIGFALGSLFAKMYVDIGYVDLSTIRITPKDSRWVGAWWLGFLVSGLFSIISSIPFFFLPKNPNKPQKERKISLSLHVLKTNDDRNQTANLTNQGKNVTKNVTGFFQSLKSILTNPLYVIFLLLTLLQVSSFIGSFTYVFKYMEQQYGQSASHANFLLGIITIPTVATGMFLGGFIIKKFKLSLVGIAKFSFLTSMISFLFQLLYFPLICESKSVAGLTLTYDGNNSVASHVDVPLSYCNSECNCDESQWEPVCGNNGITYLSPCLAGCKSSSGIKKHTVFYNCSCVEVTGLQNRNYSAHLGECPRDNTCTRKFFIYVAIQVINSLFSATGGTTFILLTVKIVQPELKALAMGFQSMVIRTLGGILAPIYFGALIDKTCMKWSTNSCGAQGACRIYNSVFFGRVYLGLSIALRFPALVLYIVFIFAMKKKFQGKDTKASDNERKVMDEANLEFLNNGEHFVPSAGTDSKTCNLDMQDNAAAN
UGT1A1, sequence (P22309 26-533): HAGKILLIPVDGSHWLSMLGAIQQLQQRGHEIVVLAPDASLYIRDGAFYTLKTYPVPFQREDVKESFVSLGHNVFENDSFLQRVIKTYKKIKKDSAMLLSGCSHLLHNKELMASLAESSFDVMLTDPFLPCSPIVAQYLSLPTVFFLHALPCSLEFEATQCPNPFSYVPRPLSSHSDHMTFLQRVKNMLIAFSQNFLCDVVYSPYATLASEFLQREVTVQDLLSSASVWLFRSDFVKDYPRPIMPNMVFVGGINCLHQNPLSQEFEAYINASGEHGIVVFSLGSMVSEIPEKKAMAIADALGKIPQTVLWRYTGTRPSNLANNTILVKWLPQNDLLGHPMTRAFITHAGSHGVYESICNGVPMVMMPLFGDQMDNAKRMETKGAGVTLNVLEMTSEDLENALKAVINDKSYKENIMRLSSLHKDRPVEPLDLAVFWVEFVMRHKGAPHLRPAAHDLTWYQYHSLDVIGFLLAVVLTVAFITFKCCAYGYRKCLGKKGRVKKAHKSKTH
CYP2C8, sequence (P10632 whole entry): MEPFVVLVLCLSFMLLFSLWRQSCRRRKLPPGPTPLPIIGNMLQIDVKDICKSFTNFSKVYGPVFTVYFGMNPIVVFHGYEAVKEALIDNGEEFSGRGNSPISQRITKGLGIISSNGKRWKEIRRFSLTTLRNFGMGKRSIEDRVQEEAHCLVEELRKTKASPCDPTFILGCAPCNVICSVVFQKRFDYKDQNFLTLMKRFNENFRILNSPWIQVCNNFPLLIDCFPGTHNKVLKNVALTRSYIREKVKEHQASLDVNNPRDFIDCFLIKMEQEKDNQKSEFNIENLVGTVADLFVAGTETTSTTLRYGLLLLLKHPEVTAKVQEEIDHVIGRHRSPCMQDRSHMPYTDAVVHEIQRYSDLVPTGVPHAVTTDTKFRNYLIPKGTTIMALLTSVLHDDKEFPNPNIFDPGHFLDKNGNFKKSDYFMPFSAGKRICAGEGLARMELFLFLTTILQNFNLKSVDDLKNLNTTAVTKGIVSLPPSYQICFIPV
BSEP, sequence (O95342 whole entry): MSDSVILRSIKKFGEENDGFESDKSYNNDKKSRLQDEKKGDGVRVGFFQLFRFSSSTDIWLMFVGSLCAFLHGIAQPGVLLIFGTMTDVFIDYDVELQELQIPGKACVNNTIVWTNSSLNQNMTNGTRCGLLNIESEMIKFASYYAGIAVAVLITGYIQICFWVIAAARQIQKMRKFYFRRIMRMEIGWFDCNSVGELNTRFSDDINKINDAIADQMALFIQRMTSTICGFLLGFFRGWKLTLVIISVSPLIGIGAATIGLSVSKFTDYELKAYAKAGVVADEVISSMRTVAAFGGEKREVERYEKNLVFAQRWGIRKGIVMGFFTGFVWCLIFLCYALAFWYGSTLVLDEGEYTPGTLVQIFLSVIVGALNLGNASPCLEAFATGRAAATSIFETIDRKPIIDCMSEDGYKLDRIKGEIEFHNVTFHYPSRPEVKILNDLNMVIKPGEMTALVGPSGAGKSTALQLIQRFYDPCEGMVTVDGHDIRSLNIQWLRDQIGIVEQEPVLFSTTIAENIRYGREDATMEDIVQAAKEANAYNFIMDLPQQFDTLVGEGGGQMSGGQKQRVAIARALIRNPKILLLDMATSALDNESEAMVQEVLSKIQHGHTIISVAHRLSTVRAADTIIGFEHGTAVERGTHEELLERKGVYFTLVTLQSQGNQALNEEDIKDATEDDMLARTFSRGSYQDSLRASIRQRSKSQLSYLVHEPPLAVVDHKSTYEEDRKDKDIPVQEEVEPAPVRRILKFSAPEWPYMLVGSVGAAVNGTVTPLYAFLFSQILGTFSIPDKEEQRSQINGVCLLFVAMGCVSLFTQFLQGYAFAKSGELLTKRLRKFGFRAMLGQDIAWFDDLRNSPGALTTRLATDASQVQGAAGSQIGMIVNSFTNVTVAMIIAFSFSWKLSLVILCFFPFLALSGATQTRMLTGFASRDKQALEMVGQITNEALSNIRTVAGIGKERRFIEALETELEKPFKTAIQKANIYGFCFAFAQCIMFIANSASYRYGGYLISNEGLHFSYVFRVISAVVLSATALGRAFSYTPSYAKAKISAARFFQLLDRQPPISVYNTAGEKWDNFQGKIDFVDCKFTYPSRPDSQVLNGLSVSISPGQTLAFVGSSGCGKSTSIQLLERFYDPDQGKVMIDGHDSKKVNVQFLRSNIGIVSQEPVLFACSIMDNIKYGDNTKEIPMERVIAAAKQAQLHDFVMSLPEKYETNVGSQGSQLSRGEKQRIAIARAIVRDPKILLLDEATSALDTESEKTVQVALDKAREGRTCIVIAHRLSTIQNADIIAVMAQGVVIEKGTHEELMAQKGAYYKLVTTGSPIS

SMILES: C[C@@H]1[C@H](c2c(F)ccc(F)c2F)C[C@H](NC(=O)c2cnc3c(c2)C[C@@]2(C3)C(=O)Nc3ncccc32)C(=O)N1CC(F)(F)F [atogepant, (3′S)-N-[(3S,5S,6R)-6-methyl-2-oxo-1-(2,2,2-trifluoroethyl)-5-(2,3,6-trifluorophenyl)piperidin-3-yl]-2′-oxo-1′,2′,5,7-tetrahydrospiro[cyclopenta[b]pyridine-6,3′-pyrrolo[2,3-b]pyridine]-3-carboxamide]
- subjects experiencing dizziness (TEAE) ([1]; atogepant alone): 2 subjects
- tolerability ([1]; each treatment (atogepant alone, itraconazole, combination)): well-tolerated
- fraction unbound at 2 h ([2]; mild-impaired): 0.026
- fraction unbound at 2 h ([2]; moderate-impaired): 0.029
- fraction unbound at 2 h ([2]; normal hepatic function): 0.018
- fraction unbound at 2 h ([2]; severe-impaired): 0.047
- fraction unbound ([3]; mild-impaired): 0.0297
- fraction unbound ([3]; moderate-impaired): 0.034
- fraction unbound ([3]; normal hepatic function): 0.0211
- fraction unbound ([3]; severe-impaired): 0.0552
- plasma protein binding, percent bound ([3]; mild-impaired): 97.36 ± 0.70%
- plasma protein binding, percent bound ([3]; moderate-impaired): 97.05 ± 0.62%
- plasma protein binding, percent bound ([3]; normal hepatic function): 98.21 ± 0.46%
- plasma protein binding, percent bound ([3]; severe-impaired): 95.34 ± 0.85%
- discontinuation due to constipation ([4]; Studies 1 and 2): 0.5%
- discontinuation due to fatigue/somnolence ([4]; Studies 1 and 2): 0.5%
- discontinuation due to nausea ([4]; Studies 1 and 2): 0.5%
- proportion of patients with a weight decrease of at least 7% at any point ([4]; Studies 1 and 2, atogepant 10 mg): 3.8%
- Constipation, incidence [4, 14]: 6%
- Decreased Appetite, incidence [4, 14]: 2%
- Fatigue/Somnolence, incidence [4, 14]: 4%
- Nausea, incidence [4, 14]: 5%
- proportion of patients with a weight decrease of at least 7% at any point ([4]; Studies 1 and 2, atogepant 30 mg): 3.2%
- Constipation, incidence [4, 15]: 6%
- Decreased Appetite, incidence [4, 15]: 1%
- Fatigue/Somnolence, incidence [4, 15]: 4%
- Nausea, incidence [4, 15]: 6%
- proportion of patients with a weight decrease of at least 7% at any point ([4]; Studies 1 and 2, atogepant 60 mg): 4.9%
- Constipation, incidence [4, 16]: 6%
- Decreased Appetite, incidence [4, 16]: 2%
- Fatigue/Somnolence, incidence [4, 16]: 6%
- Nausea, incidence [4, 16]: 9%
- severe liver injury or jaundice ([4]; Study 1 and Study 2): no cases
- rate of transaminase elevations over 3 times the upper limit of normal ([4]; Study 1 and Study 2, patients treated with atogepant): 1.0%
- time to resolution of transaminase elevations after discontinuation ([4]; cases temporally associated with atogepant treatment, asymptomatic): ≤ 8 weeks
- Deaths, % ([5]; cohort 1, atogepant + topiramate (n = 26)): (0) %
- Deaths, % ([5]; cohort 1, atogepant alone (n = 28)): (0) %
- TEAEs leading to discontinuation, % ([5]; human, in vivo): (17.9)^a %
- TESAEs, % ([5]; human, in vivo): (0) %
- Treatment-related TEAEs, % ([5]; human, in vivo): (39.3) %
- Treatment-related TESAEs, % ([5]; human, in vivo): (0) %
- constipation reported ([5]; human, in vivo): 3 participants
- nausea reported ([5]; human, in vivo): 6 participants
- TEAEs, % ([5]; human, in vivo, 7 days): (71.4) %
- inhibition of CYP2C8 [6]: not an inhibitor
- inhibition of UGT1A1 [7]: does not inhibit
- induction of CYP1A2 [8]: not an inducer
- induction of CYP3A4 [9]: not an inducer
- substrate of OATP1B3 [10]: substrate
- inhibition of OAT1 [11]: not an inhibitor
- inhibition of BSEP [12]: not an inhibitor
- route of elimination (metabolism) [13]: primarily by CYP3A4
